# Measurements from US6287586A, “Pharmaceutical compositions of vanadium biguanide complexes and their use” (priority 1999, dated 2001).
# Columns and labels:
# STZ diabetic rats = conditions: cited from earlier work
# STZ-diabetic rats = experiment: Plasma glucose lowering in STZ-diabetic rats after i.p. administration (glucose oxidase method); format: in vivo, male Wistar rats; conditions: for AUC (blood glucose): over 72 h after 0.12 mmol/kg i.p., group average; for rats with plasma glucose levels reduced to <9 mmol/L: 0.12 mmol/kg i.p. in 3% gum Arabic, STZ-diabetic rats
# Description: Nineteen male Wistar rats weighing 190-220 g were obtained from the Animal Care Center at the University of British Columbia. Animals were acclimatized for a period of 7-14 days in our facility.
# Animals were made diabetic with a single intravenous injection of streptozotocin (STZ) (Source: Sigma) at 60 mg/kg in 0.9% NaCl (1 mL/kg volume) (Source: BDH ) under light halothane (Halocarbon Laboratories) anaesthesia. The diabetic state was confirmed on the third day post-stz-administration with Ames brand Glucometer and Glucostix reading, and blood glucose levels of over 13 mM were categorized as diabetic.
# On day seven post STZ-administration, the nineteen animals were divided randomly into four groups. These four groups received one of four treatments, including control. The control group received an equivalent volume of 3% gum Arabic carrier alone.
# The gum arabic was prepared by dissolving 3 g of gum arabic in 100 mL of distilled water. This mixture was sealed and stored under refrigeration for 1 week before the experiment.
# All drugs were injected intraperitoneally into the rats at a volume of 5 ml/kg in 3% gum Arabic. The dose of administration was 0.12 mmol/kg.
# Animals were allowed free access to food.
# Blood was collected from the tail into heparinized capillary tubes and centrifuged at 10,000 g for 15 minutes. Blood was collected in 50 μL aliquots in this manner prior to drug administration, and at 2, 4, 6, 8, 12, 16, 20, 24, 48 and 72 hours post administration.
# The plasma was analyzed for glucose levels using Boehringer Mannheim Glucose Kits (glucose oxidase method).
# [1] = human, in vivo, cited from earlier work
# [2] = withdrawn drug; cited from earlier work
# [3] = Sakurai et al. (1980); cited from earlier work
# rat adipocytes = conditions: in vitro, Nature 284:556-558 (1980); cited from earlier work
molecule,measurement,setting,value
O=S(=O)([O-])[O-].[O]=[V+2] [vanadyl sulfate],blood glucose and blood lipids (in words),"STZ diabetic rats; oral, STZ diabetic rats, McNeill et al.",lowers blood glucose and blood lipids
same,secondary complications of diabetes (in words),"STZ diabetic rats; oral, STZ diabetic rats, cataracts and cardiac dysfunction",prevents secondary complications of diabetes such as cataracts and cardiac dysfunction
"CN(C)C(=N)NC(=N)N [Metformin, 1,1-dimethylbiguanide]",acute lowering of plasma glucose (in words),"STZ-diabetic rats; IP 0.12 mmol/kg in 3% gum Arabic, over 72 hours",did not acutely lower plasma glucose levels
same,AUC (blood glucose),STZ-diabetic rats,1572.94 mmol/L/h
same,dose excreted by the kidneys,[1]; 24 h,about 90%
same,oral dose excreted in the feces,[1]; po,Approximately 30%
Bis(ethylmaltolato) oxovanadium(IV) [BEOV],rats with plasma glucose levels reduced to <9 mmol/L,STZ-diabetic rats,40%
same,AUC (blood glucose),STZ-diabetic rats,1197.30 mmol/L/h
"[H]/N=C(/N)N/C(=N/[H])NCCc1ccccc1 [phenformin, 1-phenethylbiguanide]",side effects (in words),[2],serious lactic acidosis side effects
[O]=[V]([O-])([O-])[O-] [vanadate],in vivo reduction (in words),[3],reduced in vivo to vanadyl
same,elevated blood glucose (in words),"STZ diabetic rats; STZ rats, administered in drinking water, McNeill et al. 1985",decreased the elevated blood glucose
same,depression of cardiac performance (in words),"STZ diabetic rats; STZ rats, drinking water, McNeill et al. 1985",prevented the depression of cardiac performance
[O]=[V+2] [vanadyl ion],stimulation of glucose oxidation (in words),rat adipocytes,insulin-like stimulation of glucose oxidation in rat adipocytes was due to the vanadyl ion
"Bis(N^1,N^1 -dimethylbiguanidato)oxovanadium(IV) [VO(met)2]",rats with plasma glucose levels reduced to <9 mmol/L,STZ-diabetic rats,40%
same,AUC (blood glucose),STZ-diabetic rats,1362.61 mmol/L/h
same,"plasma glucose lowering, rat studies (in words)","STZ-diabetic rats; rat studies, summary statement",active in lowering plasma glucose
